Experimental data as given in PMC12527173, “Cytotoxic, anti-inflammatory, antioxidant, and anti-glyoxalase-I evaluation of chelating substances: In silico and in vitro study” (PLOS One, 2025).
Like-named read-outs stand apart in the source and are kept apart here.

Assays:
[1] = biological target: T1, human recombinant Glo-I enzyme (rhGlo-I) (Homo sapiens, UniProt Q04760); test: Glyoxalase-I (Glo-I) enzyme inhibition assay; format: biochemical; conditions: for Maximum (descriptive statistics of enzyme inhibition): highest mean inhibition over the tested concentrations; for Maximum (descriptive statistics of enzyme inhibition) / Minimum (descriptive statistics of enzyme inhibition): in % (unit assumed); for Minimum (descriptive statistics of enzyme inhibition): lowest mean inhibition over the tested concentrations
T1 construct: N-terminal Met and 6-His tag (N); purchased R&D Systems; host or cells: E. coli
T1 sequence (Q04760 2-184 limits assumed): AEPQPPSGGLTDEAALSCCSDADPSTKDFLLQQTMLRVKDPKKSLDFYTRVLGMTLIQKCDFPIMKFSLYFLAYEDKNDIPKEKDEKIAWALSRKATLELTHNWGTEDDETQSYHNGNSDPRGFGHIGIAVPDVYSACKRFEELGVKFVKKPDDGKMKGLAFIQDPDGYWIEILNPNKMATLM
Procedure: Solvents and chemicals were procured from Sigma-Aldrich Co. and Acros (ThermoFisher Scientific, New Jersey, USA). […] The enzyme was obtained from R&D Systems® Corporation in the USA. Synthetic compounds were tested for their inhibitory effects on the enzyme using a 10 mM DMSO stock concentration in triplicates. The manufacturer’s protocol from R & D Systems, Inc. in Minneapolis, MN, USA was followed for the in vitro experiments. The reconstituted Glo-I enzyme (0.5 mg/mL) was thawed after being stored at −70°C in sterile deionized water. […] The monitoring was done at a wavelength of 240 nm for 200 seconds at 37°C. The substrate mixture was freshly concocted with a concentration of 100 mM glutathione and 100 mM methylglyoxal (MG) in assay buffer containing 0.5 M sodium phosphate dibasic/monobasic. It was then left undisturbed at room temperature for 15 minutes […]. The selected compounds for investigation are subsequently produced in testing concentration ranges using a 0.1 M solution of sodium phosphate dibasic/monobasic with a pH range of 7–7.2. The blank contained an assay buffer with MG substrate. The test compounds were combined with human recombinant Glo-I (50 µM) in a 96-well plate to determine their kinetic behavior.

[2] = tested on: CACO2 colorectal cancer cell line; test: SRB cytotoxicity assay, CACO2; format: cell-based; conditions: Homo sapiens, Caco-2, 72 h incubation, n = 12, read-out: Cytotoxicity (as of %Control) IC50 value CACO2
Procedure: (§1) The cancer cell lines were cultured in DMEM supplemented with 10% FBS (Bio Whittaker, Verviers, Belgium), HEPES Buffer (10 mM), gentamicin (50 µg/mL), L-glutamine (100 μg/mL), streptomycin ([…]), penicillin (100 µg/mL), and 4-(2-hydroxyethyl)-1-piperazineethanesulfonic acid (HEPES) Buffer (Sigma, St. Luis, MO, USA). The Sulforhodamine B used was obtained from Santa Cruz Biotechnology, Inc. in Texas, USA. […] Periodontal ligament fibroblasts (PDL) were utilized to assess specific cytotoxicity. Cancer cell lines that have survived offer several benefits. They provide a consistent and uninterrupted source of cells, so bypassing any ethical concerns related to the use of human tissue. Additionally, they are cost-effective. The cytotoxicity levels were assessed using the Sulforhodamine B (SRB) colorimetric assay, provided by Santa Cruz Biotechnology, Inc. in Texas, USA. The Spectro Scan 80D UV-VIS spectrophotometer, manufactured by Sedico Ltd. in Nicosia, Cyprus, was employed for this cytotoxicity screening. The cells were co-incubated with substances or a reference agent at various doses ranging from 5 to 200 μg/mL. […] The reduction in cell viability was analyzed by plotting Dose-response curves and expressing the data as a percentage of the control optical density. The IC50 values were obtained using regression analysis.

[3] = tested on: SW480 colorectal cancer cell line; test: SRB cytotoxicity assay, SW480; format: cell-based; conditions: Homo sapiens, 72 h incubation, n = 12, read-out: Cytotoxicity (as of %Control) IC50 value SW480
Procedure: as §1

[4] = tested on: HCT116 colorectal cancer cell line; test: SRB cytotoxicity assay, HCT116; format: cell-based; conditions: Homo sapiens, HCT-116, 72 h incubation, n = 12, read-out: Cytotoxicity (as of %Control) IC50 value HCT116
Procedure: as §1

[5] = tested on: SW620 colorectal cancer cell line; test: SRB cytotoxicity assay, SW620; format: cell-based; conditions: Homo sapiens, SW-620, 72 h incubation, n = 12, read-out: Cytotoxicity (as of %Control) IC50 value SW620
Procedure: as §1

[6] = tested on: HT-29 colorectal cancer cell line; test: SRB cytotoxicity assay, HT29; format: cell-based; conditions: Homo sapiens, 72 h incubation, n = 12, read-out: Cytotoxicity (as of %Control) IC50 value HT29
Procedure: as §1

[7] = tested on: PANC1 pancreatic cell line; test: SRB cytotoxicity assay, PANC1; format: cell-based; conditions: Homo sapiens, PANC-1, 72 h incubation, n = 12, read-out: Cytotoxicity (as of %Control) IC50 value PANC1
Procedure: as §1

[8] = SRB cytotoxicity assay, normal PDL fibroblasts; format: cell-based; conditions: normal periodontal ligament (PDL) fibroblasts, 72 h incubation, 0.1–200 µM range, read-out: Cytotoxicity (as of %Control) IC50 value PDL fibroblasts
Procedure: as §1

[9] = tested on: A375 human skin cancer cell line; test: SRB cytotoxicity assay, A375; format: cell-based; conditions: A-375, 72 h incubation, n = 12, read-out: Cytotoxicity (as of %Control) IC50 value A375 skin melanoma
Procedure: as §1

[10] = tested on: A549 lung cancer cell line; test: SRB cytotoxicity assay, A549; format: cell-based; conditions: Homo sapiens, 72 h incubation, n = 12, read-out: Cytotoxicity (as of %Control) IC50 value A549 lung malignancy
Procedure: as §1

[11] = tested on: Human PC3 prostate cancer cell line; test: SRB cytotoxicity assay, PC3; format: cell-based; conditions: 72 h incubation, n = 12, read-out: Cytotoxicity (as of %Control) IC50 value PC3 prostate malignancy
Procedure: as §1

[12] = tested on: Breast cancer cell line MCF7; test: SRB cytotoxicity assay, MCF7; format: cell-based; conditions: Homo sapiens, 72 h incubation, n = 12, read-out: Cytotoxicity (as of %Control) IC50 value MCF7 mammary malignancy
Procedure: as §1

[13] = tested on: T47D breast cancer cell line; test: SRB cytotoxicity assay, T47D; format: cell-based; conditions: Homo sapiens, 72 h incubation, n = 12, read-out: Cytotoxicity (as of %Control) IC50 value T47D mammary malignancy
Procedure: as §1

[14] = tested on: HeLa uterine cervix adenocarcinoma cell line; test: SRB cytotoxicity assay, HeLa; format: cell-based; conditions: Homo sapiens, 72 h incubation, n = 12, read-out: Cytotoxicity (as of %Control) IC50 value Hela cervix malignancy
Procedure: as §1

[15] = 3.125 µM, read-out: Trial one (%inhibtion)
[16] = 3.125 µM, read-out: Trial three (%inhibtion)
[17] = 3.125 µM, read-out: Trial two (%inhibtion)
[18] = 6.25 µM, read-out: Trial one (%inhibtion)
[19] = 6.25 µM, read-out: Trial three (%inhibtion)
[20] = 6.25 µM, read-out: Trial two (%inhibtion)
[21] = 12.5 µM, read-out: Trial one (%inhibtion)
[22] = 12.5 µM, read-out: Trial three (%inhibtion)
[23] = 12.5 µM, read-out: Trial two (%inhibtion)
[24] = 25 µM, read-out: Trial one (%inhibtion)
[25] = 25 µM, read-out: Trial three (%inhibtion)
[26] = 25 µM, read-out: Trial two (%inhibtion)
[27] = 50 µM, read-out: Trial one (%inhibtion)
[28] = 50 µM, read-out: Trial three (%inhibtion)
[29] = 50 µM, read-out: Trial two (%inhibtion)
[30] = human recombinant Glo-I, triplicates, read-out: IC50 µM ± SD
[31] = read-out: Trial one (%inhibtion)
[32] = read-out: Trial three (%inhibtion)
[33] = read-out: Trial two (%inhibtion)

inhibition at 3.125 µM [1, 15] | inhibition at 3.125 µM [1, 16] | inhibition at 3.125 µM [1, 17] | inhibition at 6.25 µM [1, 18] | inhibition at 6.25 µM [1, 19] | Maximum (descriptive statistics of enzyme inhibition) [1] | Minimum (descriptive statistics of enzyme inhibition) [1] | Structure (SMILES) | IC50 [2] | IC50 [3] | IC50 [4] | IC50 [5] | IC50 [6] | IC50 [7] | IC50 at 72 h [8] | IC50 [9] | IC50 [10] | IC50 [11] | IC50 [12] | IC50 [13] | IC50 [14] | also measured
10.9% | 20.2% | 4.72% | 19.1% | 24% | 50.76 | 11.95 | O=c1cc(O)cc(/C=C/c2ccc(O)c(O)c2)o1 [Hispidin] | 74.3 ± 1.13 µM | 34.6 ± 3.11 µM | 198 ± 12.2 µM | 34.3 ± 6.52 µM | 82.75 ± 0.78 µM | 130 ± 2.08 µM | > 200 µM | 98.9 ± 9 µM | 26 ± 5.22 µM | 139 ± 13.6 µM | 384 ± 7.57 µM | 52.6 ± 0.69 µM | 122 ± 1.34 µM | inhibition at 6.25 µM [1, 20]: 10%; inhibition at 12.5 µM [1, 21]: 29.5%; inhibition at 12.5 µM [1, 22]: 34.3%; inhibition at 12.5 µM [1, 23]: 19.2%; inhibition at 25 µM [1, 24]: 47.9%; inhibition at 25 µM [1, 25]: 43.5%; inhibition at 25 µM [1, 26]: 32.4%; inhibition at 50 µM [1, 27]: 53.5%; inhibition at 50 µM [1, 28]: 54.5%; inhibition at 50 µM [1, 29]: 44.3%; IC50 [1, 30]: 36.4 ± 16.1 µM
22.8% | 28.6% | 19.5% | 32.6% | 33.7% | 56.90 | 23.66 | O=C1c2ccc(O)c(O)c2C(=O)c2c(O)ccc(O)c21 [Quinalizarin] | 109 ± 9.26 µM | 118 ± 3.04 µM | 72.2 ± 5.7 µM | 40.7 ± 2.21 µM | 144 ± 15.6 µM | 127 ± 2.52 µM | > 200 µM | 48.6 ± 1.8 µM | 7.9 ± 0.71 µM | 143.1 ± 0.18 µM | 33.2 ± 0.78 µM | 37.7 ± 4.78 µM | 85.51 ± 0.44 µM | inhibition at 6.25 µM [1, 20]: 28.6%; inhibition at 12.5 µM [1, 21]: 37.2%; inhibition at 12.5 µM [1, 22]: 41.8%; inhibition at 12.5 µM [1, 23]: 35.4%; inhibition at 25 µM [1, 24]: 42.7%; inhibition at 25 µM [1, 25]: 43.6%; inhibition at 25 µM [1, 26]: 46.6%; inhibition at 50 µM [1, 27]: 55.5%; inhibition at 50 µM [1, 28]: 55.3%; inhibition at 50 µM [1, 29]: 59.9%; IC50 [1, 30]: 33.4 ± 12.6 µM

Structure (SMILES) | inhibition at 3.125 µM [1, 15] | inhibition at 3.125 µM [1, 16] | inhibition at 3.125 µM [1, 17] | inhibition at 6.25 µM [1, 18] | inhibition at 6.25 µM [1, 19] | Maximum (descriptive statistics of enzyme inhibition) [1] | Minimum (descriptive statistics of enzyme inhibition) [1] | IC50 [2] | IC50 [3] | IC50 [4] | IC50 [5] | IC50 [6] | IC50 [7] | IC50 at 72 h [8] | IC50 [9] | IC50 [10] | IC50 [11] | IC50 [12] | IC50 [13] | IC50 [14] | also measured
CC(C)=CC[C@@H](O)C1=CC(=O)c2c(O)ccc(O)c2C1=O [Shikonin] | – | – | – | – | – | 100.7 | 23.58 | 43.8 ± 4.97 µM | 41.6 ± 6.37 µM | 108 ± 2.6 µM | 60.3 ± 2.07 µM | 142.3 ± 0.76 µM | 80 ± 2.11 µM | > 200 µM | 56.5 ± 6.9 µM | 54 ± 5.8 µM | 176.2 ± 1.25 µM | 37.8 ± 3.89 µM | 30.9 ± 3.66 µM | 13.9 ± 1.91 µM | IC50 [1]: 8.1 µM; inhibition at 3.125 µM [1, 31]: 16.9%; inhibition at 6.25 µM [1, 31]: 34.8%; inhibition at 12.5 µM [1, 31]: 59.4%; inhibition at 25 µM [1, 31]: 72.5%; inhibition at 50 µM [1, 31]: 104%; inhibition at 3.125 µM [1, 32]: 30%; inhibition at 6.25 µM [1, 32]: 51.3%; inhibition at 12.5 µM [1, 32]: 61%; inhibition at 25 µM [1, 32]: 73.9%; inhibition at 50 µM [1, 32]: 101%; inhibition at 3.125 µM [1, 33]: 23.8%; inhibition at 6.25 µM [1, 33]: 45.8%; inhibition at 12.5 µM [1, 33]: 65.1%; inhibition at 25 µM [1, 33]: 74.2%; inhibition at 50 µM [1, 33]: 96.9%
